Reference: ChEMBL document CHEMBL1201862, “PubChem BioAssay data set” (2004)
The source made the active and inactive calls.

Legend:
[1] = target: T1, Endoribonuclease toxin MazF (Escherichia coli K-12, UniProt P0AE70); assay: MazF toxin RNase activators, dose response, biochemical, fluorescence, single-stranded RNA substrate, uHTS hits (AID 588481); format: functional
T1 sequence (P0AE70 whole entry): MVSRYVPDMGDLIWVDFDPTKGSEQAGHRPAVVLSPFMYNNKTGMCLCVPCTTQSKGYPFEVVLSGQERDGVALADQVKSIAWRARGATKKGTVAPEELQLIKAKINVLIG

[2] = target: T1, Endoribonuclease toxin MazF; assay: fluorescent RNA oligo signal without MazF, dose response, counter-screen for MazEF activator project, biochemical, fluorescence, single-stranded RNase substrate (AID 588502); format: functional
[3] = target: T2, RNA-binding protein pos-1 (Caenorhabditis elegans, UniProt G5EF15); assay: inhibitors of POS-1/mex-3 RNA binding, dose response, biochemical, fluorescence polarization (AID 1964);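 also: purified POS-1 fused to maltose binding protein made in E. coli; potency of compounds blocking POS-1 binding to fluorescent RNA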
T2 sequence (G5EF15 whole entry): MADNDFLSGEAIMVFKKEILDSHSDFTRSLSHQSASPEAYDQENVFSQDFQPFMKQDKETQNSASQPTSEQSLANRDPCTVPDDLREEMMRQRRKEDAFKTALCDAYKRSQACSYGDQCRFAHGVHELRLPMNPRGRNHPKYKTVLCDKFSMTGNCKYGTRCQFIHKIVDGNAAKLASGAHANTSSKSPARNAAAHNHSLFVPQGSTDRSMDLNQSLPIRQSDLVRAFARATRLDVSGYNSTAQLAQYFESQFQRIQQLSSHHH

[4] = target: T3, Zinc finger protein mex-5 (Caenorhabditis elegans, UniProt Q9XUB2); assay: MEX-5/TCR-2 RNA interaction inhibitors, dose response, biochemical, C. elegans, fluorescence polarization (AID 1960)
T3 sequence (Q9XUB2 whole entry): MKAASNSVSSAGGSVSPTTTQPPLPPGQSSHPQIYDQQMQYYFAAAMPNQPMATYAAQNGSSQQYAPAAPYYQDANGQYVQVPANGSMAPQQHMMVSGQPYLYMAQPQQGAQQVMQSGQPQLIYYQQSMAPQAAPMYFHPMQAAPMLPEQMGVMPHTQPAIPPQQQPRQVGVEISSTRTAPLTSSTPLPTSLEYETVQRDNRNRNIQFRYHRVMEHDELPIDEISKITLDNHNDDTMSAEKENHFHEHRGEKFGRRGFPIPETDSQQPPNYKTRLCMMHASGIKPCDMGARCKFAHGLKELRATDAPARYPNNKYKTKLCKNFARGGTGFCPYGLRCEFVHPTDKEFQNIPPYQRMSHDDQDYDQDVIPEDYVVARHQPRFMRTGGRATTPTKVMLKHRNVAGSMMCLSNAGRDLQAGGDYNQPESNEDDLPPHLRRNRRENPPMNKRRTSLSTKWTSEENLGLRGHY

[5] = target: T4, Type-1 angiotensin II receptor (Homo sapiens, UniProt P30556); assay: AT1 receptor antagonists, dose response, selectivity assay for APJ receptor antagonist project, cell-based, uHTS hits (AID 463214); format: functional;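 also: antagonist potency against angiotensin II stimulated AT1 response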
T4 sequence (P30556 whole entry): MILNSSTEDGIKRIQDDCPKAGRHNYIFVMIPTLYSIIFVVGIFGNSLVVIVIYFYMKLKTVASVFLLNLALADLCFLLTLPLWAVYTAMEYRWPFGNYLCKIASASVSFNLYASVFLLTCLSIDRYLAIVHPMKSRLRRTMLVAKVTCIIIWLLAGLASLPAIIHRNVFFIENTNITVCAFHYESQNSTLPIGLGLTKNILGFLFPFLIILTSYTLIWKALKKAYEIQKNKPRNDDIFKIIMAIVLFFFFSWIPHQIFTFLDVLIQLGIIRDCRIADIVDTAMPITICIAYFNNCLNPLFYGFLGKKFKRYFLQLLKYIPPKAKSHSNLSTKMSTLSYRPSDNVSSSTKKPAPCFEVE

[6] = target: Beta-galactosidase (Escherichia coli, UniProt Q8VNN2); assay: PubChem AID 485352; format: functional
[7] = target: T5, Cytochrome P450 1A2 (Homo sapiens, UniProt P05177);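 also: PubChem cytochrome P450 panel assay, CYP1A2 panel member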
T5 sequence (P05177 whole entry): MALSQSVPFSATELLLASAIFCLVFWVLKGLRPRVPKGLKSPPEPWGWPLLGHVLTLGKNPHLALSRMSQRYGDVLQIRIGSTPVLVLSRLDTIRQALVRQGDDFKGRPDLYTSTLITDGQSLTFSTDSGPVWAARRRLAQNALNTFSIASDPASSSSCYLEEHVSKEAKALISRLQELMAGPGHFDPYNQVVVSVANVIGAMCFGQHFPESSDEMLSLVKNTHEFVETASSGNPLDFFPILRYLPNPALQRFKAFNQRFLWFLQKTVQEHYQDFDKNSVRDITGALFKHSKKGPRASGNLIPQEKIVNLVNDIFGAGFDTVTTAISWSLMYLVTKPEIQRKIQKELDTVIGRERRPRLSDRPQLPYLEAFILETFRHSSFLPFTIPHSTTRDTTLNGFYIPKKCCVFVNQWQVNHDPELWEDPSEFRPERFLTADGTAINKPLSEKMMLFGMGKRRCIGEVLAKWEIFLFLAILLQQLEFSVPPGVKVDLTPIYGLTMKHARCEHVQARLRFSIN

[8] = target: Arf-GAP with SH3 domain, ANK repeat and PH domain-containing protein 1 (Homo sapiens, UniProt Q9ULH1); format: functional;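 also: biochemical fluorescence polarization dose–response screen measuring inhibition of ASAP1; ASAP1 GAP domain stimulating GTP hydrolysis by truncated human ARF1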
[9] = target: T6, Caspase-6 (Homo sapiens, UniProt P55212); assay: human caspase-6 inhibitors, dose response, biochemical, VEID-R110 fluorescence, cherry-pick (AID 720632)
T6 sequence (P55212 whole entry): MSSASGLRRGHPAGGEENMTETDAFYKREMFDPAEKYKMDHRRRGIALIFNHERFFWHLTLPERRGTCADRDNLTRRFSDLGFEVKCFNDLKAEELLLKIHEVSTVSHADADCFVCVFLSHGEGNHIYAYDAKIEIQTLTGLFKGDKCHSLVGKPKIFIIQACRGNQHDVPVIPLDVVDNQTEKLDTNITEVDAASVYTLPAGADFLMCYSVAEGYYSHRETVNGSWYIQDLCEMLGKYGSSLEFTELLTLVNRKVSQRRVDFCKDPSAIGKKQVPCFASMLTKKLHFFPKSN

[10] = target: T7, RNA-editing ligase 1, mitochondrial (Trypanosoma brucei brucei, UniProt P86926); assay: TbREL1 ligase inhibitors, dose response, biochemical, fluorescence, Trypanosoma brucei (AID 1117295); format: functional
T7 sequence (P86926 whole entry): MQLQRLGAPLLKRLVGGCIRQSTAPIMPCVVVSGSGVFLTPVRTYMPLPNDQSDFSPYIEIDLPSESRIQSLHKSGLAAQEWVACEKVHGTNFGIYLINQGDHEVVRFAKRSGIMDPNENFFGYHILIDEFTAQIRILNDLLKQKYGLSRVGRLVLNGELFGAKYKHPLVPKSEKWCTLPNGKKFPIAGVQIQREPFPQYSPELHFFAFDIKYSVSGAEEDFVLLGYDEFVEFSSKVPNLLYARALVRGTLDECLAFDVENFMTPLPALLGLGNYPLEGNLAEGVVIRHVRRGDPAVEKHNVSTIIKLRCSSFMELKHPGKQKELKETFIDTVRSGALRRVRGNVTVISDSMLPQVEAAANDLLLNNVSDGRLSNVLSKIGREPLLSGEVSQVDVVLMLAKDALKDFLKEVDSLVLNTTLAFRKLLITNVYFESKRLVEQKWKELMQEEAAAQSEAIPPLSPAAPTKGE

[11] = target: T8, Aminopeptidase N (Plasmodium falciparum FcB1/Columbia, UniProt O96935); assay: P. falciparum M1AAP inhibitors, biochemical, fluorogenic H-Leu-NHMec substrate, 1536-well (AID 1445); set-up: species or system Plasmodium falciparum 3D7, 3D7
T8 sequence (O96935 whole entry): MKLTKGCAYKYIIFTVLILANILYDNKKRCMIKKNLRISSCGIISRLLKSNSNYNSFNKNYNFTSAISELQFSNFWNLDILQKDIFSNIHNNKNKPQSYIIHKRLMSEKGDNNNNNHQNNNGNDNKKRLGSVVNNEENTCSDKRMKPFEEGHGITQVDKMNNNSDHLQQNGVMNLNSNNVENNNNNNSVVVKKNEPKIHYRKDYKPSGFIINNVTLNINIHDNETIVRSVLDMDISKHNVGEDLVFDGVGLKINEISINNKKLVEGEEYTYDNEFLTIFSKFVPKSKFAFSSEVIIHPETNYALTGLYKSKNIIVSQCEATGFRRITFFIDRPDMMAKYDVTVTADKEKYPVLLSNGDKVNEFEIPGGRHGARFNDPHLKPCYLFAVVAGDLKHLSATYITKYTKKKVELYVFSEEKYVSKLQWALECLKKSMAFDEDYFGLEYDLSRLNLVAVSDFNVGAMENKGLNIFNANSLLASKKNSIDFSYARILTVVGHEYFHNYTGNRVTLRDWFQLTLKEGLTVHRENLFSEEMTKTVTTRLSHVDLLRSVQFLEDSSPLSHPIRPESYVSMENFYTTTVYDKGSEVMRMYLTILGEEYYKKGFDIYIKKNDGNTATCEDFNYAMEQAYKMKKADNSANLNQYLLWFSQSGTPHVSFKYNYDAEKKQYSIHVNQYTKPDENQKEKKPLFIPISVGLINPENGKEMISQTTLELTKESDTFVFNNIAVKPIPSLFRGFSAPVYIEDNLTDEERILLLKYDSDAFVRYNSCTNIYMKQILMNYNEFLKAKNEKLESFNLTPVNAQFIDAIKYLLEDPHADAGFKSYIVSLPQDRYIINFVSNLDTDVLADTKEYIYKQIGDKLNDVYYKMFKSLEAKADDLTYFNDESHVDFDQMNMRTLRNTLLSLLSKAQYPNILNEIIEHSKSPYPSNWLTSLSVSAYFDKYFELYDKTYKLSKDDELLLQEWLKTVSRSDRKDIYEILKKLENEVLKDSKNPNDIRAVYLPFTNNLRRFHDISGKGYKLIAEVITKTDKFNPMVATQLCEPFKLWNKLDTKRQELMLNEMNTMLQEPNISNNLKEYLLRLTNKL

[12] = target: FAD-linked sulfhydryl oxidase ALR (Homo sapiens, UniProt P55789); assay: inhibitors of human ALR sulfhydryl oxidase, dose response, biochemical, H2O2 detection, luminescence, cherry-pick (AID 493248)
[13] = target: Dual specificity tyrosine-phosphorylation-regulated kinase 1A (Rattus norvegicus, UniProt Q63470); format: biochemical, Homo sapiens

Beta-galactosidase, sequence (Q8VNN2 whole entry): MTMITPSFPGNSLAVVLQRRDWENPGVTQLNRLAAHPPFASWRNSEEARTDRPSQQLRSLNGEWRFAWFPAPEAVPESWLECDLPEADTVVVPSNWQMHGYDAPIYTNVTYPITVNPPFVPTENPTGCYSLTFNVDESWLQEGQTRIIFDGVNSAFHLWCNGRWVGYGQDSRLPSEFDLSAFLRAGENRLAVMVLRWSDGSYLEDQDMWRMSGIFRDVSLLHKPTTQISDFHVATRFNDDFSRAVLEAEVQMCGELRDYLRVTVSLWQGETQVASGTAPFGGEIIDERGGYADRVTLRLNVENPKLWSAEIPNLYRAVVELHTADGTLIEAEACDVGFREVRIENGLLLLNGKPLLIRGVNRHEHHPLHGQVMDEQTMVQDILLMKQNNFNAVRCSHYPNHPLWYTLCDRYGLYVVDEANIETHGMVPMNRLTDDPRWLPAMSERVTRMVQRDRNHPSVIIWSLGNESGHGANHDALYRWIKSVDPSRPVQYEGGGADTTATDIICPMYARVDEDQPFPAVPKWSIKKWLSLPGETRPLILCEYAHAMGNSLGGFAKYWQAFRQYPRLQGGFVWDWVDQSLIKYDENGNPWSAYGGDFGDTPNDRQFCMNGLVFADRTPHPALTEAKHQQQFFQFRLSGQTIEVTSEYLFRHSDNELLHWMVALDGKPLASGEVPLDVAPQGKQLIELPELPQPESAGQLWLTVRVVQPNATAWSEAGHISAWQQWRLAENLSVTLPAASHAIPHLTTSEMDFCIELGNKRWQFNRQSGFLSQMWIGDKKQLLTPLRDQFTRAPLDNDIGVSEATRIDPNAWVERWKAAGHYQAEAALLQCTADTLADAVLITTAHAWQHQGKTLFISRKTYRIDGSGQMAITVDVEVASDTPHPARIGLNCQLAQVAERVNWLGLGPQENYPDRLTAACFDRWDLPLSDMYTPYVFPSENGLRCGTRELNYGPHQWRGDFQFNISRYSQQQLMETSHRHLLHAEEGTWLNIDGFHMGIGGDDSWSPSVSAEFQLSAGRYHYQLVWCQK
FAD-linked sulfhydryl oxidase ALR, sequence (P55789 whole entry): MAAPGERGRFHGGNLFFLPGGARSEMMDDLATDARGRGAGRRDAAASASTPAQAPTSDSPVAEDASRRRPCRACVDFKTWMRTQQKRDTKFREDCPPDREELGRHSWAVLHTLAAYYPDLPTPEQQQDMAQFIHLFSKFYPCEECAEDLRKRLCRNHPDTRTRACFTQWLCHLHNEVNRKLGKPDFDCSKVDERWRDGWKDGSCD
Arf-GAP with SH3 domain, ANK repeat and PH domain-containing protein 1, sequence (Q9ULH1 whole entry, the tested form may be a part): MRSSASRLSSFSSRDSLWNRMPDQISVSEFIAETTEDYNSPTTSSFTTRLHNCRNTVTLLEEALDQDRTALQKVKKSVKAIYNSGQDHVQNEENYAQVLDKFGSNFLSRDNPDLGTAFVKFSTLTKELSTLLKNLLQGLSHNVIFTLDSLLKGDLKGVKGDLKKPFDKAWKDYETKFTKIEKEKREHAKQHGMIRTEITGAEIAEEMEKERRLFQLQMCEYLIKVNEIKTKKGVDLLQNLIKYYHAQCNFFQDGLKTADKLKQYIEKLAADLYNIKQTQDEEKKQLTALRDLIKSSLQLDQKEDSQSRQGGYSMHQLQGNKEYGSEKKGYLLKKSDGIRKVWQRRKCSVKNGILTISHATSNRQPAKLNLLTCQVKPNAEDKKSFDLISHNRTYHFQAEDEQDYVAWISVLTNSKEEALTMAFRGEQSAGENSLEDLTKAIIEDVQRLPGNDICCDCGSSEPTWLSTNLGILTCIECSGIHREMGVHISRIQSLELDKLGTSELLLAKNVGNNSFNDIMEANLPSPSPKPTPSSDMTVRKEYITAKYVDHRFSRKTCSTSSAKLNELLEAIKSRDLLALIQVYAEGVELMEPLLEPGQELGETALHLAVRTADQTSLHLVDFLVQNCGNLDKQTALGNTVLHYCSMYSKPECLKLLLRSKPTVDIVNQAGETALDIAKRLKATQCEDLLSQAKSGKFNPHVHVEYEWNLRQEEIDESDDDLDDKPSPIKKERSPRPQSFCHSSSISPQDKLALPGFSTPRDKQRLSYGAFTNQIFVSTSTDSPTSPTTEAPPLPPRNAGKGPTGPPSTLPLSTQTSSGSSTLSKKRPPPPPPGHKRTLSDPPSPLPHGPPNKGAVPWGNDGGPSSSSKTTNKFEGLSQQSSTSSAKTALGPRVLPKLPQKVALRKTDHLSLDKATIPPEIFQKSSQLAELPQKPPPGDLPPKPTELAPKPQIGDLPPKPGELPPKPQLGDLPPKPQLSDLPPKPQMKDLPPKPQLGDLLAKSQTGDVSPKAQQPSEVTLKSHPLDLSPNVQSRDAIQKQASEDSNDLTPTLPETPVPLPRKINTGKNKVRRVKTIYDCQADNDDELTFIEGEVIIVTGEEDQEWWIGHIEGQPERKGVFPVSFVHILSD

Row | Compound | EC50 [1] | EC50 [2] | EC50 [3] | EC50 [4] | also measured
1 | O=[N+]([O-])c1ccc(C=CC=Cc2ccccc2)cc1 | > 99 µM (inactive) | > 99 µM (inactive) |  |  | 
2 | O=c1oc2ccc3ccccc3c2cc1-c1nc2ccccc2o1 | > 99 µM (inactive) | > 99 µM (inactive) | > 300 µM (not active) | > 300 µM (inconclusive) | 
3 | CCOC(=O)C1=C2NC(=O)c3ccccc3N2C(=O)C1 |  |  | 89 µM (active) | 38.8 µM (active) | IC50 [5]: 9.25 µM (active); EC50 [6]: > 40 µM (inactive)
4 | Cc1ccc(NC(=O)c2ccc(NCC3CCCO3)c([N+](=O)[O-])c2)cc1Cl (stereo unspecified) | > 99 µM (inactive) | > 99 µM (inactive) |  |  | AC50 [7]: 14.1 µM (inconclusive); IC50 [8]: 5.2 µM (active)
5 | COc1c(O)cc2oc(-c3ccc(O)c(O)c3)cc(=O)c2c1O [EUPAFOLIN] |  |  | 93.1 µM (active) | 36 µM (active) | AC50 [9]: 29.3 µM (active); IC50 [10]: > 96.6 µM (inactive); IC50 [11]: 15.6 µM (active); AC50 [12]: 0.23 µM (active); AC50 [13]: 12.7 µM (active)
